From patent US20130109693A1, “DERIVATIVES OF PYRIDO [3,2-D] PYRIMIDINE, METHODS FOR PREPARATION THEREOF AND THERAPEUTIC USES THEREOF” (UNIVERSITE D'ORLEANS, priority 2010, published 2013)

Legend:
DYRK1A = DYRK1A (Homo sapiens, UniProt Q13627); assay: DYRK1A kinase inhibition (Woodtide substrate, buffer A); format: biochemical; details: 15 μM ATP, 30° C., recombinant GST fusion; read-out: IC50 Kinases DYRK1A
Method: (§1) The activities for inhibiting protein kinases of the compounds of the invention are tested according to the following general procedure:
(§2) Buffer A: 10 mM MgCl2, 1 mM EGTA, 1 mM DTT, 25 mM Tris-HCl pH 7.5 and 50 μg heparin/mL.
(§3) The kinase activities are dosed in buffers A or C, at 30° C., at a final concentration of ATP of 15 μM. The values of the blanks were subtracted and the activities are expressed as a % of the maximum activity, i.e. in the absence of inhibitors. The controls were carried out with suitable dilutions of DMSO.

GSK-3αβ = GSK-3αβ kinase inhibition (GS-1 substrate, buffer A); format: biochemical; details: 15 μM ATP, 30° C., native, pig brain; read-out: IC50 Kinases GSK3
Method: as §1, §2, §3
GSK-3αβ (from pig brain, native) was assayed by using a specific substrate of GSK-3 (GS-1: […]pEDEEE)(Sp represents a phosphorylated serine) (Primot, A., Baratte, B., Gompel, M., Borgne, A., Liabeuf, S., Romette, J. L., Costantini, F. and Meijer, L., 2000. Purification of GSK-3 by affinity chromatography on immobilized axin. Protein Expr. & Purif. 20 (3), 394-404). GS-1 was synthesized by Millegen (Labège, France). Its kinase activity was analyzed in the buffer A, with 1 mg of histone H1/mL, in the presence of 15 μM of [γ-^33P] ATP (3,000 Ci/mmol; 10 mCi/mL) in a final volume of 30 μl. After 30 mins of incubation at 30° C., 25 μl of supernatant aliquots were deposited on 2.5×3 cm pieces of phosphocellulose Whatman P81papier, and after 20 seconds, the filters were washed five times (for at least 5 minutes every time) in a solution of 10 mL of phosphoric acid/liter of water. The wet filters were counted in the presence of 1 mL of ACS scintillator fluid (Amersham).

Huh7 = assay: Cytotoxicity on human cells, Huh7 (liver); format: cell-based; details: Huh-7, human cells, exposed 24 h and 48 h, 0.1 to 25 μM
Method: (§4) […] Dosages on Human cells (Huh7, Caco, MDA-MB 231, HCT 116, PC3, NCl, Fibroblast)
(§5) Cytotoxicity: This method is based on an automated imaging analysis. 4.10^3 cells were cultivated on 96-well plates and thus left for 24 hours so that they may bind, be distributed and proliferate.
(§6) These cells were then exposed for 24 h and 48 h to increasing concentrations of the compounds of the invention, from 0.1 to 25 μM in a final volume of 80 μL of culture medium. The cells are then set with a 4% paraformaldehyde solution and the nuclei are colored with Hoechst 3342 and counted according to automated imaging quantification.
(§7) All the cell lines were cultivated in a DMEM or RPMI (Invitrogen) medium. All these media were completed with antibiotics (penicillin-streptomycin)(Lonza) and 10% by volume of foetal calf serum (Invitrogen). The cells were cultivated at 37° C. with 5% of CO2. The treatments with the molecules to be tested were carried out with increasing concentrations. […] The control experiments were also conducted by using suitable dilutions of DMSO (maximum 1% DMSO). Cell viability was determined by measuring the reduction of MTS as described in the article of Ribas J, Boix J. (2004). Cell differentiation caspase inhibition and macromolecular synthesis blockage but not BCL-2 or BCL-XL proteins protect SH-SY5Y cells from apoptosis triggered by two CDK inhibitory drugs. Exp. Cell Res., 295: 9-24.

HCT 116 = assay: Cytotoxicity on human cells, HCT 116 (colon); format: cell-based; details: exposed 24 h and 48 h, 0.1 to 25 μM
Method: as §4, §5, §6, §7

MDA-MB 231 = assay: Cytotoxicity on human cells, MDA-MB 231 (breast); format: cell-based; details: MDA-MB-231, human cells, exposed 24 h and 48 h, 0.1 to 25 μM
Method: as §4, §5, §6, §7

Caco = assay: Cytotoxicity on human cells, Caco (colon); format: cell-based; details: exposed 24 h and 48 h, 0.1 to 25 μM
Method: as §4, §5, §6, §7

fibroblast = assay: Cytotoxicity on human cells, fibroblast; format: cell-based; details: exposed 24 h and 48 h, 0.1 to 25 μM
Method: as §4, §5, §6, §7

CDK5 = target: T1, CDK5 (Homo sapiens, UniProt Q00535); assay: CDK5 kinase inhibition (histone H1, [γ-33P] ATP, buffer C); format: biochemical; details: 15 μM ATP, 30° C., recombinant; read-out: IC50 Kinases CDK5
T1 construct: made in house
Method: as §1
Buffer C: 60 mM β-glycerophosphate, 15 mM p-nitrophenyl-phosphate, 25 mM Mops (pH 7.2), 5 mM EGTA, 15 mM MgCl2, 1 mM DTT, 1 mM of sodium vanadate
as §3
CDK5 (humane, recombinant) was prepared as described earlier (Leclerc, S.; Garnier, M.; Hoessel, R.; Marko, D.; Bibb, J. A.; Snyder, G. L.; Greengard, P.; Biernat, J.; Mandelkow, E.-M.; Eisenbrand, G.; Meijer, L. Indirubins inhibit glycogen synthase kinase-3β and CDK5/p25, two kinases involved in abnormal tau phosphorylation in Alzheimer's disease—A property common to most CDK inhibitors? J. Biol. Chem. 2001, 276, 251-260; Bach S, Knockaert M, Reinhardt J, Lozach O, Schmitt S, Baratte B et al. (2005). Roscovitine targets, protein kinases and pyridoxal kinase. J. Biol Chem 280: 31208-31219). Its kinase activity was analyzed in the buffer C, with 1 mg of histone H1/mL, in the presence of 15 μM of [γ-^33P] ATP (3,000 Ci/mmol; 10 mCi/mL) in a final volume of 30 μl. After 30 mins of incubation at 30° C., 25 μl of supernatant aliquots were deposited on 2.5×3 cm pieces of phosphocellulose Whatman P81 paper, and after 20 seconds, the filters were washed five times (for at least 5 minutes every time) in a solution of 10 mL phosphoric acid/liter of water. The wet filters were counted in the presence of 1 mL of ACS scintillator fluid (Amersham).

NCI = assay: Cytotoxicity on human cells, NCI (lung); format: cell-based; details: exposed 24 h and 48 h, 0.1 to 25 μM
Method: as §4, §5, §6, §7

PC3 = assay: Cytotoxicity on human cells, PC3 (prostate); format: cell-based; details: PC-3, human cells, exposed 24 h and 48 h, 0.1 to 25 μM
Method: as §4, §5, §6, §7

T1 sequence (Q00535 whole entry): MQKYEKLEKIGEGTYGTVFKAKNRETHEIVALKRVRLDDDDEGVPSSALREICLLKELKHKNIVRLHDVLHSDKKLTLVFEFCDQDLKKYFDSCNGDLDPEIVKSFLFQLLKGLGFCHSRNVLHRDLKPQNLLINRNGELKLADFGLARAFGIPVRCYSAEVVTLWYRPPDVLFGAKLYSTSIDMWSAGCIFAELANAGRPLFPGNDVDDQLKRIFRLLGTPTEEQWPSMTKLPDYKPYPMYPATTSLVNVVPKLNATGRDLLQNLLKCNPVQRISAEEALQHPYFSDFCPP
T1 sequence (Q15078 99-307 partner limits assumed): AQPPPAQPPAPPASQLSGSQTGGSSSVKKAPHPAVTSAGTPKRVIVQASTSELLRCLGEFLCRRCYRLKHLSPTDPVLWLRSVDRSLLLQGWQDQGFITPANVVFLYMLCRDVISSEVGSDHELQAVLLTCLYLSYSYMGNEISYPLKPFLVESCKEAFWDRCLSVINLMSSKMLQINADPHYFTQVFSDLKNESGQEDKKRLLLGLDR

N#Cc1ccc(Nc2cnc3cnc(-c4ccc(O)cc4)nc3c2)nc1 [Compound 54, 2-(4-Hydroxyphenyl)-7-(2-(5-cyano)pyridinylamino)-pyrido[3,2-d]pyrimidine]
IC50 (DYRK1A): > 10 µM | IC50 (GSK-3αβ): 5.5 µM | melting point: > 268 °C | IC50 (Huh7): > 25 µM | IC50 (HCT 116): > 25 µM | IC50 (MDA-MB 231): 12 µM | IC50 (Caco): > 25 µM | IC50 (fibroblast): > 25 µM | IC50 (CDK5): 4 µM | IC50 (NCI): 20 µM | IC50 (PC3): > 25 µM

Oc1ccc(-c2ncc3ncc(-c4ccco4)cc3n2)cc1 [Compound 35, 2-(4-Hydroxyphenyl)-7-(2-furyl)-pyrido[3,2-d]pyrimidine]
IC50 (DYRK1A): > 10 µM | IC50 (GSK-3αβ): > 10 µM | melting point: 261 to 263 °C | IC50 (Huh7): 15 µM | IC50 (HCT 116): 5 µM | IC50 (MDA-MB 231): 4 µM | IC50 (Caco): > 25 µM | IC50 (fibroblast): 6 µM | IC50 (CDK5): 1.8 µM | IC50 (NCI): 7 µM | IC50 (PC3): 20 µM

Oc1ccc(-c2ncc3ncc(Nc4ccon4)cc3n2)cc1 [Compound 48, 2-(4-Hydroxyphenyl)-7-(3-isoxazolamino)-pyrido[3,2-d]pyrimidine]
IC50 (DYRK1A): 2 µM | IC50 (GSK-3αβ): > 10 µM | melting point: > 268 °C | IC50 (Huh7): 25 µM | IC50 (HCT 116): 9 µM | IC50 (MDA-MB 231): 12 µM | IC50 (Caco): 20 µM | IC50 (fibroblast): 15 µM | IC50 (CDK5): 2.1 µM | IC50 (NCI): 3 µM | IC50 (PC3): 20 µM

OCCNc1nc(NCc2ccccc2)c2ncc(Nc3ccc4ncccc4c3)cc2n1 [Compound 90, 4-Benzylamino-2-(2-hydroxyethylamino)-7-(6-quinolinamino)-pyrido[3,2-d]pyrimidine]
melting point: 203 to 204 °C | IC50 (Huh7): 2 µM | IC50 (HCT 116): 1.2 µM | IC50 (MDA-MB 231): 4 µM | IC50 (Caco): 4 µM | IC50 (fibroblast): 1.5 µM | IC50 (NCI): 2 µM | IC50 (PC3): 5 µM

Cc1csc(Nc2cnc3cnc(-c4ccc(O)cc4)nc3c2)n1 [Compound 50, 2-(4-Hydroxyphenyl)-7-(2-(4-methyl)thiazolamino)-pyrido[3,2-d]pyrimidine]
IC50 (DYRK1A): > 10 µM | IC50 (GSK-3αβ): > 10 µM | melting point: > 268 °C | IC50 (Huh7): 10 µM | IC50 (HCT 116): > 25 µM | IC50 (MDA-MB 231): 25 µM | IC50 (Caco): > 25 µM | IC50 (fibroblast): > 25 µM | IC50 (CDK5): > 10 µM | IC50 (NCI): 25 µM | IC50 (PC3): > 25 µM

Oc1ccc(-c2ncc3ncc(-c4ccncc4)cc3n2)cc1 [Compound 34, 2-(4-Hydroxyphenyl)-7-(4-pyridinyl)-pyrido[3,2-d]pyrimidine]
IC50 (DYRK1A): > 10 µM | IC50 (GSK-3αβ): > 10 µM | melting point: > 268 °C | IC50 (Huh7): > 25 µM | IC50 (HCT 116): 10 µM | IC50 (MDA-MB 231): > 25 µM | IC50 (Caco): > 25 µM | IC50 (fibroblast): 15 µM | IC50 (CDK5): 0.13 µM | IC50 (NCI): 5 µM | IC50 (PC3): > 25 µM

Oc1ccc(-c2ncc3ncc(-c4ccc(C(F)(F)F)cc4)cc3n2)cc1 [Compound 25, 2-(4-Hydroxyphenyl)-7-(4-trifluoromethylphenyl)-pyrido[3,2-d]pyrimidine]
IC50 (DYRK1A): 24 µM | IC50 (GSK-3αβ): ≥ 100 µM | melting point: 203 to 204 °C | IC50 (Huh7): 25 µM | IC50 (HCT 116): > 25 µM | IC50 (MDA-MB 231): > 25 µM | IC50 (Caco): > 25 µM | IC50 (fibroblast): > 25 µM | IC50 (CDK5): 0.97 µM | IC50 (NCI): 20 µM | IC50 (PC3): > 25 µM

Oc1ccc(-c2ncc3ncc(-c4ccsc4)cc3n2)cc1 [Compound 37, 2-(4-Hydroxyphenyl)-7-(3-thiophyl)-pyrido[3,2-d]pyrimidine]
IC50 (DYRK1A): > 10 µM | IC50 (GSK-3αβ): > 10 µM | melting point: 248 to 250 °C | IC50 (Huh7): > 25 µM | IC50 (HCT 116): 15 µM | IC50 (MDA-MB 231): > 25 µM | IC50 (Caco): > 25 µM | IC50 (fibroblast): > 25 µM | IC50 (CDK5): 0.12 µM | IC50 (NCI): 10 µM | IC50 (PC3): > 25 µM

OCCNc1nc(NCc2ccccc2)c2ncc(Nc3ncccn3)cc2n1 [Compound 87, 4-Benzylamino-2-(2-hydroxyethylamino)-7-(2-pyrimidinylamino)-pyrido[3,2-d]pyrimidine]
melting point: 141 to 142 °C | IC50 (Huh7): 7 µM | IC50 (HCT 116): 6 µM | IC50 (MDA-MB 231): 15 µM | IC50 (Caco): 8 µM | IC50 (fibroblast): 15 µM | IC50 (NCI): 6 µM | IC50 (PC3): 15 µM

OCCNc1nc(NCc2ccccc2)c2ncc(Nc3cnc4ccccc4c3)cc2n1 [Compound 89, 4-Benzylamino-2-(2-hydroxyethylamino)-7-(3-quinolinamino)-pyrido[3,2-d]pyrimidine]
melting point: 154 to 155 °C | IC50 (Huh7): 3 µM | IC50 (HCT 116): 0.5 µM | IC50 (MDA-MB 231): 3 µM | IC50 (Caco): 2 µM | IC50 (fibroblast): 2 µM | IC50 (NCI): 2 µM | IC50 (PC3): 3 µM

Oc1ccc(-c2ncc3ncc(-c4ccoc4)cc3n2)cc1 [Compound 36]
IC50 (DYRK1A): > 10 µM | IC50 (Huh7): > 25 µM | IC50 (HCT 116): 10 µM | IC50 (fibroblast): 20 µM | IC50 (PC3): > 25 µM

Oc1ccc(-c2cnc3cnc(-c4ccc(O)cc4)nc3c2)cc1 [Compound 20, 2,7-Di-(4-hydroxyphenyl)-pyrido[3,2-d]pyrimidine]
IC50 (DYRK1A): 0.93 µM | IC50 (GSK-3αβ): 26 µM | IC50 (Huh7): 12 µM | IC50 (HCT 116): 12 µM | IC50 (MDA-MB 231): > 25 µM | IC50 (Caco): 7 µM | IC50 (fibroblast): > 25 µM | IC50 (CDK5): 0.12 µM | IC50 (NCI): > 25 µM | IC50 (PC3): 25 µM

COc1cccc(Nc2cnc3c(NCc4ccccc4)nc(NCCO)nc3c2)c1 [Compound 84, 4-Benzylamino-2-(2-hydroxyethylamino)-7-(3-methoxyphenylamino)-pyrido[3,2-d]pyrimidine]
melting point: 110 to 111 °C | IC50 (Huh7): 3 µM | IC50 (HCT 116): 5 µM | IC50 (MDA-MB 231): 15 µM | IC50 (Caco): 4 µM | IC50 (fibroblast): 5 µM | IC50 (NCI): 3 µM | IC50 (PC3): 5 µM

COc1ccc(Nc2cnc3c(NCc4ccccc4)nc(NCCO)nc3c2)cc1 [Compound 83, 4-Benzylamino-2-(2-hydroxyethylamino)-7-(4-methoxyphenylamino)-pyrido[3,2-d]pyrimidine]
melting point: 126 to 127 °C | IC50 (Huh7): 5 µM | IC50 (HCT 116): 5 µM | IC50 (MDA-MB 231): 10 µM | IC50 (Caco): 8 µM | IC50 (fibroblast): 15 µM | IC50 (NCI): 6 µM | IC50 (PC3): 12 µM
